Results as given in patent publication US12258336B2, “Preparation of seimicarbazide-sensitive amine oxidase inhibitor and use thereof” (SHANGHAI ENNOVABIO PHARMACEUTICALS CO., LTD., priority 2018, dated 2025).
Read-outs that look alike come from different tables or passages of the source.

Legend:
rat SSAO protein = biological target: T1, rat SSAO protein (Rattus norvegicus, UniProt O08590); assay: In vitro inhibitory activity on SSAO/VAP-1 (MAO-Glo assay), rat; assay type: biochemical
T1 construct: Eli Lilly (provided, not a catalogue product)
T1 sequence (O08590 1-763): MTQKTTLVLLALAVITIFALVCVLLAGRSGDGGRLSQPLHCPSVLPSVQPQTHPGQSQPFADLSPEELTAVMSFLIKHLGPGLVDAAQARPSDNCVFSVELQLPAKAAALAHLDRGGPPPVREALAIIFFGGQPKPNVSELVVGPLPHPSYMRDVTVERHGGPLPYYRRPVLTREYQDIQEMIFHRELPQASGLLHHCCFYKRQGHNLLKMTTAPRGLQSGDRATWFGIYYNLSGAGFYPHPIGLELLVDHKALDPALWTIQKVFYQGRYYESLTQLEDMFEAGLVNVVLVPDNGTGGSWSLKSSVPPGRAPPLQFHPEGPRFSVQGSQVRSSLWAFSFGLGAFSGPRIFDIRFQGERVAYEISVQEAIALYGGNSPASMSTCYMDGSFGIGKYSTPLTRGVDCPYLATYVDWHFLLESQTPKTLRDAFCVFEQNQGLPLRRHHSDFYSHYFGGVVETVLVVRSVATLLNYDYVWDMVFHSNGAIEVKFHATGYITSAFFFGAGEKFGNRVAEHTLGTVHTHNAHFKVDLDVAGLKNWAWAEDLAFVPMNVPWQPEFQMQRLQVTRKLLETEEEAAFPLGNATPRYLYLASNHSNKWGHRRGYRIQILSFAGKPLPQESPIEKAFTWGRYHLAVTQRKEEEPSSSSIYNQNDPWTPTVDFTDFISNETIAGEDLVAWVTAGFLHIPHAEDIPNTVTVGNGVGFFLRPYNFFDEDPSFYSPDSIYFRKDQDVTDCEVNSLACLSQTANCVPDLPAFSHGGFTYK
Protocol: This assay was used to evaluate the in vitro inhibitory activity of the compounds on SSAO/VAP-1 of different species. Recombinant human SSAO protein, mouse SSAO protein or rat SSAO protein (provided by Eli Lilly) were used. The enzyme activity detection kit, MAO-Glo Assay kit (V1402) was purchased from Promega. Enzyme reaction buffer (50 mM HEPES, 120 mM NaCl, 5 mM KCl, 2 mM CaCl2, 1.4 mM MgCl2, 0.001% Tween-20, pH7.4) was prepared. The test compound was dissolved in DMSO and diluted by 3-fold concentration in gradient. The final concentration of test compound in a 10 μL reaction system was 1 μM to 0.05 nM when SSAO was detected. The content of DMSO in the detection reaction was 1%. After the solution of test compound in DMSO was diluted in the enzyme reaction buffer at a volume ratio of 1:25, 2.5 μL of which was added to each well of detection plate, two replicates for each concentration. 5 μL of SSAO protein diluted in the enzyme reaction buffer was added to each well, the final concentration of which was 10 nM to 80 nM in 10 μL reaction system. The mixture was incubated at room temperature for 10 minutes. 2.5 μL of the reaction substrate diluted in the enzyme reaction buffer was added to each well, the final concentration of which was 10 μM in 10 μL reaction system. After the mixture was reacted at room temperature for 120 minutes, 10 μL of detection reagent was added to each well. The reaction solution was incubated for 20 minutes at room temperature, and the plate was read with Synergy Neo 2 for detection. The value was converted into inhibition rate by the following formula: Inhibition rate=(Signalpositive−Signaltest)/(Signalpositive−Signalnegative)×100%
Signalpositive was positive control without test compound. Signalnegative was negative control without test compound and SSAO enzyme, and Signaltest was detection value of each compound at different concentrations. IC50 value was calculated by using 4 parameter curve fitting.

SSAO/VAP-1 = biological target: T2, SSAO/VAP-1 (Rattus norvegicus, UniProt O08590); assay: Inhibitory activity on SSAO/VAP-1 in animal tissues after oral administration; assay type: in vivo; conditions: 24 hours post single administration, mean ± SEM
T2 construct: from tissue; host or cells: rat plasma, brain, retina, small intestine, lung, liver, kidney
T2 sequence (O08590 1-763): T1 sequence (O08590 1-763)
Protocol: MAO-Glo Assay kit (Promega, V1402) was used to determine the activity of SSAO in animal tissues. After test compounds were adminstered to the animal, SSAO enzyme activity was calculated by measuring the activity of the monoamine oxidases in the animal tissue homogenate that was insensitive to MAO inhibitors Clogyline and Pargyline. The compounds were orally administered to rats at different doses, and same volume of vehicle was orally administered to control animals. Animal plasma, brain, retina, small intestine, lung, liver, and kidney were respectively collected 24 hours after administration (the animals were perfused with PBS before the collection of small intestine, lung, liver, and kidney) and stored in a −80° C. refrigerator until analysis. Each tissue was homogenized in tissue homogenate lysis buffer (20 mM HEPES, pH 7.4, 150 mM NaCl, 1 mM EDTA, 1 mM EGTA, 1% Triton X-100 and 1× Roche Complete protease inhibitor tablet). The homogenate was centrifuged at 12000 rpm at 4° C. for 30 minutes to remove tissue fragments. 5 μL of supernatant and 2 μL of mixture of Clogyline (10 μM) and Pargyline (10 μM) were incubated for 10 minutes at room temperature. Then 2 μL of substrate from MAO-Glo assay kit was added to the mixture, and reacted at room temperature for 60 minutes. Detection reagents were added to quench the reaction according to instructions. The fluorescein data was read by Biotek Neo2. The activity of monoamine oxidase in tissues that is not sensitive to MAO inhibitors was used to represent the activity of SSAO. Percentage of SSAO activity in administered animals was compared with that of control animals to calculate the compound inhibition rate.

[1] = brain, read-out: remaining SSAO activity percentage (SSAO activity %), Brain
[2] = kidney, read-out: remaining SSAO activity percentage (SSAO activity %), kidney
[3] = liver, read-out: remaining SSAO activity percentage (SSAO activity %), Liver
[4] = lung, read-out: remaining SSAO activity percentage (SSAO activity %), Lung
[5] = plasma, read-out: remaining SSAO activity percentage (SSAO activity %), Plasma
[6] = retina, read-out: remaining SSAO activity percentage (SSAO activity %), Retina
[7] = small intestine, read-out: remaining SSAO activity percentage (SSAO activity %), Small intestine

## NC/C(=C\F)COc1cnc(N2CCN(C3COC3)CC2)nc1 [Example 4, (E)-3-fluoro-2-(((2-(4-(oxbutan-3-yl)piperazin-1-yl)pyrimidin-5-yl)oxo)methyl)prop-2-en-1-amine]
Rat SSAO protein
  IC50: < 100 nM
SSAO/VAP-1; [1]
  remaining activity at 0.005 mg/kg: 98.3 ± 25.4%
  remaining activity at 0.025 mg/kg: 143 ± 68.3%
  remaining activity at 0.12 mg/kg: 75.4 ± 7.4%
  remaining activity at 0.6 mg/kg: 26.5 ± 11.8%
  remaining activity at 3 mg/kg: 22.1 ± 7.7%
  remaining activity at 15 mg/kg: 4 ± 1.7%
SSAO/VAP-1; [2]
  remaining activity at 0.005 mg/kg: 99.2 ± 4.1%
  remaining activity at 0.025 mg/kg: 58.7 ± 12.1%
  remaining activity at 0.12 mg/kg: 46.3 ± 3.5%
  remaining activity at 0.6 mg/kg: 26.2 ± 10.1%
  remaining activity at 3 mg/kg: 0.7 ± 1.8%
  remaining activity at 15 mg/kg: 2.4 ± 1.3%
SSAO/VAP-1; [3]
  remaining activity at 0.005 mg/kg: 108 ± 33.5%
  remaining activity at 0.025 mg/kg: 14.4 ± 8.1%
  remaining activity at 0.12 mg/kg: 40.1 ± 8.2%
  remaining activity at 0.6 mg/kg: 3 ± 7.6%
  remaining activity at 3 mg/kg: 5.3 ± 3.2%
  remaining activity at 15 mg/kg: -2.4 ± 5.4%
SSAO/VAP-1; [4]
  remaining activity at 0.005 mg/kg: 94.9 ± 17.2%
  remaining activity at 0.025 mg/kg: 64 ± 20.3%
  remaining activity at 0.12 mg/kg: 39.8 ± 11.3%
  remaining activity at 0.6 mg/kg: 14.1 ± 3.8%
  remaining activity at 3 mg/kg: 4.6 ± 2.5%
  remaining activity at 15 mg/kg: 2.2 ± 0.2%
SSAO/VAP-1; [5]
  remaining activity at 0.005 mg/kg: 61.7 ± 8.2%
  remaining activity at 0.025 mg/kg: 58.6 ± 4.2%
  remaining activity at 0.12 mg/kg: 33.7 ± 1.9%
  remaining activity at 0.6 mg/kg: 12.9 ± 2.2%
  remaining activity at 3 mg/kg: 1.8 ± 0.2%
  remaining activity at 15 mg/kg: 1.1 ± 0.4%
SSAO/VAP-1; [6]
  remaining activity at 0.005 mg/kg: 65 ± 14%
  remaining activity at 0.025 mg/kg: 49.1 ± 7.1%
  remaining activity at 0.12 mg/kg: 25.1 ± 5.3%
  remaining activity at 0.6 mg/kg: 8 ± 1.2%
  remaining activity at 3 mg/kg: 5.2 ± 2.4%
  remaining activity at 15 mg/kg: 3 ± 2.2%
SSAO/VAP-1; [7]
  remaining activity at 0.12 mg/kg: 96.9 ± 21.7%
  remaining activity at 0.6 mg/kg: 38.9 ± 3.2%
  remaining activity at 3 mg/kg: 11.1 ± 4.4%
  remaining activity at 15 mg/kg: 1.1 ± 0.9%

## COC1CC2CCC(C1)N2c1ncc(OC/C(=C/F)CN)cn1 (stereo not drawn) [Example 12]
Rat SSAO protein
  IC50: < 100 nM
SSAO/VAP-1; [1]
  remaining activity at 1 mg/kg: 63.1 ± 12.1%
SSAO/VAP-1; [5]
  remaining activity at 1 mg/kg: 25.6 ± 3%
SSAO/VAP-1; [6]
  remaining activity at 1 mg/kg: 24.6 ± 3.5%
